Series [1] relates to mdx mice. The note with it: previous studies (Ref. 36-37); cited from earlier work.
Series [2] concerns muscle regeneration after traumatic injury. As to conditions: systemic administration (Ref. 21); cited from earlier work.
Series [3] has as its system mdx mice. The note with it: previous studies (Ref. 38 and 39); cited from earlier work.
Another series in a line: Body weight, Example 2. The format is in vivo. As to conditions: mdx mice, genistein 2 mg/kg/ip daily for 5 weeks vs vehicle. The procedure:
(§1) Mdx animals were purchased from Charles River Italy (Calco, Milan, Italy). Animals were 4 weeks old on arrival and were acclimatized for 5 days before the study. At the beginning of the experiment the mice, which were at that point 5 weeks old, weighted about 20-22 grams. The mice were treated daily for 5 weeks with either the phytoestrogen genistein (Sigma, Mo., USA) at a dose of 2 mg/kg/ip or its vehicle (1:3 DMSO: 0.9% NaCl solution).
(§2) Mice were weighed and examined for forelimb strength at baseline and at the end of the experiment. Strength testing consisted of five separate measurements using a grip meter attached to a force transducer that measures the peak force generated (Stoelting Co., Wooddale Ill., USA). Specifically, the mouse grabbed the trapeze bar as it is pulled backward and the peak pull force in grams is recorded on a display. The three highest measurements for each animal were averaged to give the strength score.

Series [4] relates to mdx mice. The series can be described thus: Forelimb strength and fatigue by grip meter, Example 2. The series is classed as in vivo. As to conditions: genistein 2 mg/kg/ip daily for 5 weeks vs vehicle. Here is the method: as §1, §2
The degree of fatigue was calculated by comparing the first two pulls to the last two pulls. The decrease between pulls 1+2 and pulls 4+5 provided the measure of fatigue.

Series [5] concerns mdx mice. Description: Histological studies of biceps muscle, Example 2. The series is classed as in vivo. The note with it: genistein 2 mg/kg/ip daily for 5 weeks vs vehicle. The procedure:
as §1
Transverse cryostat sections 10 μm thick were obtained from the midpoint of the biceps and TA muscle body. The whole muscle cross sections (corresponding to a mean area of 2.10 mm^2 in biceps and 2.25 mm^2 in TA) were stained with hematoxylin-eosin and were examined by a blinded observer using the AxioVision 2.05 image analysis system equipped with an Axiocam camera scanner (Zeiss, Munchen, Germany). The following four areas with patchy distribution were recognized: 1) normal fibers identified by the presence of peripheral nuclei; 2) necrotic fibers identified by pale cytoplasm and phagocytosis; 3) regenerating fibers identified by small size, central nuclei with/without basophilic cytoplasm; 4) centrally nucleated fibers identified by normal size but with central nuclei. The area occupied by normal fibers, necrotic fibers, regenerating fibers, or centrally nucleated fibers was expressed as a percentage of the area of the whole muscle cross section.

The next series concerns NF-κB. The series can be described thus: NF-κB activation (EMSA) in skeletal muscle, Example 2. The format is in vivo. As to conditions: mdx mice skeletal muscle, genistein 2 mg/kg/ip daily for 5 weeks vs vehicle. The procedure: as §1
Isolation of nuclear proteins in approximately 50 mg of frozen skeletal muscle tissue was performed according to recently detailed method (See ref 15 below). Twenty micrograms of nuclear extract were incubated for 30 min at room temperature with 50 fmol of biotin-end-labeled 45-mer double-strand NF-κB oligonucleotide from the HIV long terminal repeat, 5-[…] GGCGTGGG-3 containing 2(underlined) NF-κB binding sites. Both complimentary oligos were end-labeled separately and then annealed prior to use. […] The results were expressed as relative integrated intensity compared with normal controls, considering exposure time, background levels and known protein concentration of an Epstein Barr virus nuclear antigen-1 extract, which was used as EMSA control.
Background: In EMSA bound probe runs differently from free probe, usually more slowly.

Series [6] relates to Extensor digitorum longus muscles (EDL) of mdx mice. Description: Electrophysiological studies of isolated EDL muscle, Example 2. The series is classed as in vivo. The note with it: genistein 2 mg/kg/ip daily for 5 weeks vs vehicle. The procedure: as §1
Extensor digitorum longus muscles (EDL) were vertically mounted in a temperature controlled (30°) chamber containing Krebs Ringer bicarbonate buffer (Sigma k4002) and continuously gassed with a mixture of 95% O2 and 5% CO2. One end of the muscle was linked to a fixed clamp while the other end was connected to the lever-arm of an Aurora Scientific Instruments 300B actuator/transducer system using a nylon wire. […] For each experiment, the initial muscle length was adjusted to the length (L0) which produced the highest twitch force. The optimal fiber length (Lf) was determined by multiplying the value of L0 for the fiber length by the muscle length ratio (0.44 for the EDL and 0.71 for soleus). The muscle cross-sectional area (CSA) was determined for the EDL and soleus by dividing the muscle mass (m) by the product of the Lf and the density of mammalian skeletal muscle (1.06 mg/mm^3).
In order to measure force generation, the muscle was initially stimulated with two 0.5 ms single pulses (with a rest time of 150 s) to measure twitch force, twitch force/cross sectional area (CSA), and contraction time (the time that the isolated muscle needs to reach the peak force after delivery of a single electrical pulse).
In order to measure high-stress eccentric contractions, the muscle was stimulated with five tetanic stimulations (train of 0.1 ms pulses delivered at 180 Hz, for 0.6 s) to evaluate the maximum isometric force (and maximum force/cross sectional area (CSA)) and the decline in maximal isometric force. The latter was measured by dividing the force value at the last stimulation (F5) by the force value at the first stimulation (F1), and used as a index of myofiber injury caused by high-stress contractions.

Series [7] has as its system mdx mice. The series can be described thus: Immunohistochemistry of biceps (myogenin, dMHC), Example 2. The format is in vivo. As to conditions: genistein 2 mg/kg/ip daily for 5 weeks vs vehicle.
For series [8], the system named is mdx mice. Description: Serum creatine kinase (CK) evaluation, Example 2. The series is classed as in vivo. The note with it: genistein 2 mg/kg/ip daily for 5 weeks vs vehicle. Here is the method:
as §1
Blood samples were centrifuged at 6000 g and the serum was stored at −80° C. until the day of analysis. Serum CK was evaluated at 37° C. using a commercially available kit (Randox Laboratories LTD, Antrim, UK). The results are expressed as U/L.

The nature of the next series: Body weight, Example 1. The series is classed as in vivo. The note with it: WT mice, after 5 weeks daily i.p. treatment, compared to WT mice treated with vehicle. Here is the method: (§3) Five-week old mdx and WT mice were treated for 5 weeks with daily 100 μl intraperitoneal injections with either flavocoxid (a mixture of catechin and baicalin) (n=8, 5 mg/kg), methylprednisolone (n=8, 0.75 mg/Kg) or vehicle (n=8, 33% (v/v) dimethylsulphoxide (DMSO) in 0.9% NaCl). At the end of the experiments, animals were anaesthetized with intraperitoneal administration of sodium penthobarbital (80 mg/kg). Blood was then collected by intracardiac puncture and used to analyze creatine kinase (CK) levels. The biceps, quadriceps and extensor digitorum longus (EDL) muscles were removed bilaterally and immediately frozen in liquid nitrogen-cooled isopentane and stored at −80° C. for histological and biochemical evaluations.
Mice were weighed and examined for forelimb strength at baseline and after 5 weeks of treatment. Strength testing consisted of five separate measurements using a grip meter attached to a force transducer that measures peak force generated (Stoelting Co, Wooddale Ill., USA). Briefly, the mouse grabed the trapeze bar as it was pulled backward and the peak pull force in grams was recorded on a display upon release by the animal. The three highest measurements for each animal were averaged to give the strength score. The degree of fatigue was calculated by comparing the first two pulls to the last two pulls. […]

The subject of series [9] is WT and mdx mice. The series can be described thus: Forelimb strength and fatigue by grip meter, Example 1. The format is in vivo. As to conditions: flavocoxid 5 mg/kg, methylprednisolone 0.75 mg/Kg. Here is the method:
as §3
Mice were weighed and examined for forelimb strength at baseline and after 5 weeks of treatment. Strength testing consisted of five separate measurements using a grip meter attached to a force transducer that measures peak force generated (Stoelting Co, Wooddale Ill., USA). Briefly, the mouse grabed the trapeze bar as it was pulled backward and the peak pull force in grams was recorded on a display upon release by the animal. The three highest measurements for each animal were averaged to give the strength score. The degree of fatigue was calculated by comparing the first two pulls to the last two pulls. The decrement between pulls 1+2 and pulls 4+5 gave the measure of fatigue.

The subject of series [10] is WT and mdx mice. The series can be described thus: Serum creatine kinase (CK) evaluation, Example 1. The series is classed as in vivo. As to conditions: after 5 weeks daily i.p. treatment, mean±SD. Here is the method:
as §3
Blood samples were centrifuged at 6,000 RPM and the serum stored at −80° C. until the day of analysis. Serum CK was evaluated at 37° C. using a commercially available kit (Randox Laboratories LTD, Crumlin, Co. Antrim U.K). The results were expressed as U/L.

[11] abbreviates: end of 5 weeks daily i.p. treatment.

`CC(=O)SCCC1Cc2c(C)c(OC(=O)CCC(=O)O)c(C)c(C)c2O1` (racemic) [IRFI-042, (±)-5-emisuccinoyl-2-[2-(acetylthio)ethyl]-2,3-dihydro-4,6,7-trimethylbenzofuran]: in the series on mdx mice [1], the “effects on functional, biochemical and morphological parameters of mdx mice muscle fibers” value is reported as “beneficial effects”.
In the case of `COc1cc(/C=C/C(=O)CC(=O)/C=C/c2ccc(O)c(OC)c2)ccc1O` [curcumin], the “muscle regeneration after traumatic injury” value in series [2] is “stimulates muscle regeneration”.
In the case of `O=C(O[C@@H]1Cc2c(O)cc(O)cc2O[C@@H]1c1cc(O)c(O)c(O)c1)c1cc(O)c(O)c(O)c1` [epigallocatechin gallate], the “effect on mdx mice” value in the series with mdx mice [3] is reported as “beneficial effect”.
On to `O=c1c(-c2ccc(O)cc2)coc2cc(O)cc(O)c12` [genistein, 5,7-Dihydroxy-3-(4-hydroxyphenyl)chromen-4-one], for which the body weight entry in “Body weight, Example 2” was “not significantly different”. Further, in the series with mdx mice [4], the forelimb strength entry is “significantly augmented”, the level of fatigue result was “slightly lower” and the “strength normalized to weight” value is “higher”. In the series on mdx mice [5], the “necrosis in the biceps” value is “decreased”, the “percentage of centrally nucleated fibers in the biceps” value is recorded as “not found to modify”, the “percentage of normal muscular area in the biceps” value is “not found to modify” and the “percentage of regenerating fibers in the biceps” value is “increased”. Moreover, the NF-κB activation entry in the series on NF-κB is given as “significantly decreased”. For the same compound, in series [6], the contraction time entry is recorded as “not found to modify”, the “decline of maximal isometric force (F5/F1 after five tetanic stimulations)” value is given as “reduced”, the “maximum force/CSA” value is on record as “not found to modify” and the “twice force/CSA” value is given as “not found to modify”. Moreover, the twitch force entry in [6] is recorded as “not found to modify”. In the series on mdx mice [7], the “myogenin expression in the nuclei of muscles” value is recorded as “significantly increased”, the “number of dMHC positive fibers” value is given as “not found to modify” and the “number of myogenin positive satellite cells (SC)” value is “not found to modify”. For the same compound, in the series with mdx mice [8], the CK levels result is reported as “statistically significant reduction”.
With `C[C@H]1C[C@@H]2[C@H]([C@@H](O)C[C@@]3(C)[C@H]2CC[C@]3(O)C(=O)CO)[C@@]2(C)C=CC(=O)C=C12` [methylprednisolone], the body weight entry in “Body weight, Example 1” is “increase in body weight”. For the same compound, the “fatigue levels compared to vehicle-treated mdx” value in the series on WT and mdx mice [9] (after 5 weeks daily i.p. treatment) was −13%. Besides, in the series with WT and mdx mice [9] (setting [11]), the “forelimb strength compared to vehicle-treated mdx mice” value is given as “+30%” and the “strength normalized to weight compared to vehicle-treated mdx mice” value is “+27%”. The “serum CK levels” value in the series on WT and mdx mice [10] (WT mice) came to 365±28 U/L. Further, in the series with WT and mdx mice [10] (mdx mice), the “serum CK levels” value is given as 1737±103 U/L.
Turning to `S=C(S)N1CCCC1` [pyrrolidine dithiocarbamate], the “effects on functional, biochemical and morphological parameters of mdx mice muscle fibers” value in the series on mdx mice [1] is recorded as “beneficial effects”.
